Assay [1] is described as follows: viability loss in Vero cells – cytotoxicity control for Vif-APOBEC3G degradation inhibitor project, dose response (AID 1117358). It is filed as functional. As to conditions: Vero.
A short description of assay [2]: viability loss in THP-1 monocytes – THP-1 cells, cytotoxicity control for Vif-APOBEC3G degradation inhibitor project, dose response (AID 1117359). It is filed as functional. Particulars: THP-1.
Assay [3] in a line: HIV-1 Vif–A3G interaction blockers – biochemical, TR-FRET, GST-Vif 1-94, biotin-A3G peptide, dose response retest, primary screen (AID 1117319).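 Also: TR-FRET signal of purified GST-Vif binding a biotinylated A3G peptide; inhibitors lower the FRET signal by blocking Vif and A3G binding.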 It is filed as functional. (In TR-FRET formats the signal depends on donor and acceptor labels being close together.)
A short description of assay [4]: activation of miR-122 Renilla sensor silencing – cell-based, Huh7 psiCHECK-miR122, Renilla luciferase, cherry-picked, dose response (AID 651956).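 Also: huh7 hepatoma cells stably carrying a psiCHECK-2 miR-122 sensor plasmid; renilla luciferase signal reporting endogenous miR-122 activity after 48 h compound exposure.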 Format: functional.
The target of assay [5] is T1, fMet-Leu-Phe receptor (Homo sapiens, UniProt P21462).
T1 sequence (P21462 whole entry): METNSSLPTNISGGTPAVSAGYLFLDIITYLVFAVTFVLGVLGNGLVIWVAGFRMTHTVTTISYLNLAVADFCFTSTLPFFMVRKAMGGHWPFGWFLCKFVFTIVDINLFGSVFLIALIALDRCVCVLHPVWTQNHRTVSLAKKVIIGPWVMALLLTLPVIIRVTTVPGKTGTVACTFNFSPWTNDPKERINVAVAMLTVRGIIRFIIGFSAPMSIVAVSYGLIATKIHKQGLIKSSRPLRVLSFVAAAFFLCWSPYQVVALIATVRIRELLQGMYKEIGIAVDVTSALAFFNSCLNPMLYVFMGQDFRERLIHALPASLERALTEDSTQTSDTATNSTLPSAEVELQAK
As to the kind of experiment: formyl peptide receptor binders – dose response (AID 519). It is filed as functional.

Assay [6] can be described thus: Luminescence Cell-Based Dose Confirmation HTS to Identify Activators of 5'UTR Stem-Loop Driven Alpha-Synuclein mRNA Translation in H4 Neuroglioblastoma Cells. [Related pubchem assays: 1829 (Project Summary), 1814 (Primary HTS)]. Format: functional.
For assay [7], the system named is Streptococcus sp. 'group A'. As to the kind of experiment: Streptococcus pyogenes SK(-)GAS viability under kanamycin – luminescence, BacTiterGlo, confirmation, counter-screen for streptokinase expression inhibitor project, dose response (AID 1900). It is filed as functional, organism-based.
In assay [8] the test system is Streptococcus. As to the kind of experiment: GAS UMAA2166 growth inhibition – luminescence, BacTiterGlo, counter-screen for streptokinase expression inhibitor project, dose response (AID 1915).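 Also: potency for reduction of bacterial viability or growth.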 Format: functional, organism-based. For orientation: The purpose of a counterscreen is to sort out artefacts and off-target activity.
For assay [9], the target named is T2, Streptokinase A (Streptococcus pyogenes serotype M1, UniProt P10520).
T2 sequence (P10520 whole entry): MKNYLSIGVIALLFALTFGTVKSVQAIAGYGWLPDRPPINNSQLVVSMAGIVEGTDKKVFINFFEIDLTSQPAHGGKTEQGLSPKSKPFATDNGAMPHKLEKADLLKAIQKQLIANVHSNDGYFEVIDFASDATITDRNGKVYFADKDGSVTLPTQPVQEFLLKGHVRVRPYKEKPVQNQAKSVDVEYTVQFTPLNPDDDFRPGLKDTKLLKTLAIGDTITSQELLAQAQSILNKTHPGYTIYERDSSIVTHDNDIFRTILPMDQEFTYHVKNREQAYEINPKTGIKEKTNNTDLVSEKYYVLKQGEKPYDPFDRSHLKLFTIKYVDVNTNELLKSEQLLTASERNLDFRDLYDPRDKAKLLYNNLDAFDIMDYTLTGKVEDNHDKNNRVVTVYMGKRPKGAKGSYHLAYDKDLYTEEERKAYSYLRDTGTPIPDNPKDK
In words: viability-normalized secreted streptokinase activity reduction – plasminogen activation absorbance, OD405, dose response (AID 1914).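 Also: secreted streptokinase activity via plasminogen activation per viability signal from cell pellet.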 It is filed as functional, Streptococcus pyogenes M1 GAS.

Assay [10] in a line: Luminescence Cell-Based Dose Response HTS to Identify Activators of Luciferase Translation or Activity in H4 […] Cells. [Related pubchem assays: 1829 (Project Summary), 1814 (Primary HTS)]. It is filed as functional.
For assay [11], the system named is H4. In words: Luminescence Cell-Based Dose Response HTS to Identify Activators of 5'UTR Stem-Loop Driven Prion Protein mRNA Translation in H4 Neuroglioblastoma Cells. [Related pubchem assays: 1829 (Project Summary), 1814 (Primary HTS)]. It is filed as functional. Particulars: Homo sapiens.
Assay [12] can be described thus: P. falciparum Dd2 growth inhibitors, dose response, SYBR Green, cherry-picked samples (AID 1159567). Format: functional, cell-based.
A short description of assay [13]: HIV-1 AD8 envelope cell-cell fusion blockers – cherry-pick, dose response (AID 652062).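 Also: luciferase signal from cell-cell fusion driven by HIV-1 clade B AD8 Env; potency is for inhibitors of fusion seen as a drop in luminescence.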 Format: functional, cell-based.
Assay [14] can be described thus: blockers of HIV-1 envelope-mediated cell-cell fusion – cherry-pick, dose response (AID 652057). Format: functional, cell-based.
Assay [15] in a line: blockers of HIV-1 ZM109 envelope-driven cell-cell fusion – HeLa effector, CEM target cells, luciferase, cherry-pick, dose response (AID 652058).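 Also: luciferase signal from HIV-1 Env mediated cell-cell fusion of effector and target cells.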 Format: functional, cell-based.
Assay [16] has as its target Prothrombin (Homo sapiens, UniProt P00734). As to the kind of experiment: Thrombin 1536 HTS Dose Response Confirmation. [Related pubchem assays: 1046 (Thrombin 1536 HTS; hits were confirmed in this assay)]. It is filed as functional.
In assay [17] the target is T3, Rac GTPase-activating protein 1 (Homo sapiens, UniProt Q9H0H5).
T3 sequence (Q9H0H5 whole entry): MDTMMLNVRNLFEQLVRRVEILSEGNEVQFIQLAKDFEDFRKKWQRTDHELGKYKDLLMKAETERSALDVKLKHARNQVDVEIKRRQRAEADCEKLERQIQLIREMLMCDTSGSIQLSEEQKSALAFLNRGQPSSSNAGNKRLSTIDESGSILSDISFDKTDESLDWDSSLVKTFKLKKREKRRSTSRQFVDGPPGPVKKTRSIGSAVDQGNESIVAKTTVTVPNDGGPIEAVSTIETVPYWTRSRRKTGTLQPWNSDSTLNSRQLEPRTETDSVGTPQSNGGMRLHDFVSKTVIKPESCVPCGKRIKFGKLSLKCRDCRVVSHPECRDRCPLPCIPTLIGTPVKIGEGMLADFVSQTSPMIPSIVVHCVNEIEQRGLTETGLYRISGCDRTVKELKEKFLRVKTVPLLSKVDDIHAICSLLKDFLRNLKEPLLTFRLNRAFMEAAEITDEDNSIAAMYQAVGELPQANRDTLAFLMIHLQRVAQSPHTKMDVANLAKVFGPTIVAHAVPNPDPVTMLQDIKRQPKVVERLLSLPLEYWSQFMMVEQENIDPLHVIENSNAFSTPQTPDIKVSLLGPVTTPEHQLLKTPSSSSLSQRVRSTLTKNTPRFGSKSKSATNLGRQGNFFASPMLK
As to the kind of experiment: blockers of MgcRacGAP-driven Rac1 GTP hydrolysis – biochemical, ADP Hunter fluorescence, primary and confirmatory, confirmation (AID 624330). It is filed as functional.

Assay [18] deals with T4, Caspase-6 (Homo sapiens, UniProt P55212).
T4 sequence (P55212 whole entry): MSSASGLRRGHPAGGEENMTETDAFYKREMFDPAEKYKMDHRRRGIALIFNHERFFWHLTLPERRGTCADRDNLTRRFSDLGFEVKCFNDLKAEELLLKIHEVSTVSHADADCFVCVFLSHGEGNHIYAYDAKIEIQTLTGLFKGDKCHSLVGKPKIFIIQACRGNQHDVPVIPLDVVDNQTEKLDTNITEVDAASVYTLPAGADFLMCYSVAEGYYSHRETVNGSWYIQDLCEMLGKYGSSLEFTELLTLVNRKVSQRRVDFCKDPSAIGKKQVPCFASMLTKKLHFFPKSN
As to the kind of experiment: inhibition of CASP6 peptide cleavage – biochemical, VEID-R110 fluorescence, cherry-pick, dose response (AID 720632).

Assay [19] has as its target T5, COUP transcription factor 2 (Homo sapiens, UniProt P24468).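 Also: HEK293 cells transiently cotransfected with COUP-TFII expression vector and reporter; luciferase reporter luminescence driven by COUP-TFII from the pX2-168 reporter plasmid.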
T5 sequence (P24468 whole entry): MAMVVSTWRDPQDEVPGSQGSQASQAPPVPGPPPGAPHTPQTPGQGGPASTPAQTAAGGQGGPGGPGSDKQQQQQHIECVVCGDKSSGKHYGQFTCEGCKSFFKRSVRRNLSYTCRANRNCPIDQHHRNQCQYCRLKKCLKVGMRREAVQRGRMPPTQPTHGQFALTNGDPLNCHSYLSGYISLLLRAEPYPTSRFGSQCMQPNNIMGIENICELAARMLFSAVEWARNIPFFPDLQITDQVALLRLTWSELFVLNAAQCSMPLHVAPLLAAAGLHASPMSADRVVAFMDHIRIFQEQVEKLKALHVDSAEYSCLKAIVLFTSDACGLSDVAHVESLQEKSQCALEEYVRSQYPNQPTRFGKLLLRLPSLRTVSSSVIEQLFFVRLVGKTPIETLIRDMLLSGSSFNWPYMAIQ
As to the kind of experiment: Luminescence-based cell-based high throughput dose response assay to identify inhibitors of COUP-TFII (NR2F2). Format: functional.

The structures appear in SMILES notation. Activity calls are given as the source filed them.

Experimental findings from ChEMBL document CHEMBL1201862, “PubChem BioAssay data set” (2004) are described below.

For orientation: CC50 means the concentration at which the toxic effect on the cells reaches its halfway point. The term IC50 denotes the concentration that gives 50% inhibition. The term AC50 denotes the concentration at which the activity in the assay is half-maximal. One may read the Ki as a measure of affinity in units of concentration, obtained from inhibition or displacement. What is called EC50 is the concentration that produces a half-maximal response.

In the case of `CCOc1ccc2nc(O)c(CN(Cc3ccco3)C(=O)c3ccc(Br)cc3)cc2c1`, the CC50 in assay [1] was 32.4 µM (active).
In the case of `O=C(NNc1cc(Cl)cc(Cl)c1)c1c(F)cccc1Cl`, in [2], the CC50 was > 40 µM (active).
Regarding `COc1ccc(-n2c(=O)[nH]c3ccccc3c2=O)c(OC)c1`, in assay [3], the IC50 was > 100 µM (active).
As to `CCN(C[C@H]1[C@H](c2ccccc2)[C@@H](CO)N1C(=O)C1CC1)C(=O)NC1CCCC1`, in [4], the AC50 is 47.8 µM (active).
On to `O=S(=O)(c1c[nH]cn1)N1CCc2ccccc21`, for which the Ki in assay [5] is > 66.7 µM (inactive).
For the compound `COc1cccc(-c2nn(C)c3sc(C(=O)Nc4ccc5c(c4)OCCO5)cc23)c1`, the EC50 in [6] is 5.99 µM (active); in assay [7] it was 6.53 µM (active); in [8] it was 13.9 µM (active); in assay [9], > 150 µM (not active); in [10], 22.9 µM (active); in [11], > 120 µM (not active). The CC50 in [1] is > 40 µM (active).
On to `COc1ccccc1-c1ccccc1[C@@H]1[C@@H](C#N)N(C(=O)C2CC2)[C@@H]1CO`, for which the AC50 in assay [12] was 17.4 µM (active).
Regarding `CCCC#Cc1ccc2c(c1)O[C@@H](CN(C)S(=O)(=O)c1cccc(F)c1)[C@@H](C)CN([C@@H](C)CO)S2(=O)=O`, the results for the AC50 in [13], in assay [14] and in [15] were 13.3 µM (active), 4.98 µM (active) and 3.62 µM (active), respectively.
As to `COc1ccc(NC(=O)N(C)C[C@@H]2Oc3cc(-c4ccc(C)cc4)ccc3S(=O)(=O)N([C@@H](C)CO)C[C@@H]2C)cc1`, the AC50 in [12] was 3.21 µM (active).
On to `Cn1c(Cl)nc2c1c(=O)n(Cc1cccc(Br)c1)c(=O)n2C`, for which the IC50 in assay [16] was > 50 µM (not active).
Turning to `CCCCC1=CC2=C(c3ccco3)C(=O)C(C)(OC(=O)c3ccc(OC)cc3)C(=O)C2=CN1CCCCO` (centres undefined), the IC50 in [3] is > 100 µM (active).
For `COc1cc(/C=N/Nc2ccc(C(=O)O)cc2)ccc1O`, the half-maximal inhibitory concentration (IC50) in assay [17] is 39.9 µM (active). Besides, in assay [18], the AC50 was 11.1 µM (active).
Consider `Cc1cc(NC2CCCC2)n2ncc(-c3ccccc3)c2n1`, for which the IC50 in assay [19] was 49.3 µM (inactive).
On to `CC(C)(C)n1nc2c(c1NC(=O)c1ccc(Br)o1)C[S+]([O-])C2` (centres undefined), for which the half-inhibitory concentration (IC50) in [3] is > 100 µM (active).
On to `CCOC(=O)Nc1ccc(OC)cc1S(=O)(=O)N1CCCCC1`, for which the Ki in [5] is > 66.7 µM (inactive).
